From patent US11306063B2, “Heterocyclic naphthoquinones derivatives for use in the treatment of cancers including Cushing disease” (Commissariat a l'Energie Atomique et aux Energies …, priority 2016, dated 2022)

Tests used:
Format in all cases: biochemical
[1] = biological target: T1, USP2 full length (USP2^FL) (Homo sapiens, UniProt O75604); experiment: Inhibition of Ub-AMC hydrolysis by USP2 full length; settings: Ub-AMC at 1 μM, Table 1a; for inhibition at 1 µM: 1 μM compound; for inhibition at 5 µM: 5 μM compound; for inhibition at 25 µM: 25 μM compound; for inhibition at 50 µM: 50 μM compound
T1 construct: purchased BioSciences 80352
T1 sequence (O75604 1-605): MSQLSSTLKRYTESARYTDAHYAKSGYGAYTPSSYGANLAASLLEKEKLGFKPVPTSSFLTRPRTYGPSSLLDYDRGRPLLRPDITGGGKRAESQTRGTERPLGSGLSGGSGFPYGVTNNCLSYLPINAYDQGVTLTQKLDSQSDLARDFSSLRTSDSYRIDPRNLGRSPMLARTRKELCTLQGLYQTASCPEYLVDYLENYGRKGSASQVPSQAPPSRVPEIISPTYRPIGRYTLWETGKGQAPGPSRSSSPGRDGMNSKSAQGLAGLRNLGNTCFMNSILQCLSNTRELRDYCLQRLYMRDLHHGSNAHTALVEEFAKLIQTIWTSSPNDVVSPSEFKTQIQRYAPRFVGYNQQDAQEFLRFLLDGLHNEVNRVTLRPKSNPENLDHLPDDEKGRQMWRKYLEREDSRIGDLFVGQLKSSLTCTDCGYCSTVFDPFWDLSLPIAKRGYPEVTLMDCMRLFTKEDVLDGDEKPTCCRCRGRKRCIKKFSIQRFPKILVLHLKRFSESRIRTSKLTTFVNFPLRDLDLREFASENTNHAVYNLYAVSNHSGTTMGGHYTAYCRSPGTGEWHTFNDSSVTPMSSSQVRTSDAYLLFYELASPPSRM
Procedure: (§1) Enzymatic assay was performed in a HEPES buffer (50 mM pH7.6 1 mM DTT, 2% glycerol, 0.5 mM EDTA) or in a Tris buffer (40 mM pH7.4 1 mM DTT, 5% glycerol, 0.05 mg/ml BSA) respectively, following manufacturer's instructions. Compounds were added to the reaction mixture just prior to the substrate. The enzymatic reaction kinetics was monitored through the apparition of fluorescence due to the hydrolysis of the peptidyl Ub-AMC or Ub-Rho bound over 20 or 30 minutes.

[2] = biological target: T2, USP8^CD (purified catalytic domain of USP8) (Homo sapiens, UniProt P40818); experiment: Inhibition of purified USP8^CD enzymatic activity (Ub-AMC or Ub-Rho substrate); settings: for inhibition at 1 µM: 1 μM compound; for inhibition at 0.01 µM: 0.01 μM compound; for inhibition at 0.05 µM: 0.05 μM compound; for inhibition at 10 µM: 10 μM compound; for IC50: Ub-AMC substrate at 1 μM, Table 2b, read-out: IC50 USP8 CD
T2 construct: the purified catalytic domain of USP8 (USP8^CD, in-house purified); made in house; host or cells: E. coli BL21 Gold
T2 sequence (P40818 777-1109 limits assumed): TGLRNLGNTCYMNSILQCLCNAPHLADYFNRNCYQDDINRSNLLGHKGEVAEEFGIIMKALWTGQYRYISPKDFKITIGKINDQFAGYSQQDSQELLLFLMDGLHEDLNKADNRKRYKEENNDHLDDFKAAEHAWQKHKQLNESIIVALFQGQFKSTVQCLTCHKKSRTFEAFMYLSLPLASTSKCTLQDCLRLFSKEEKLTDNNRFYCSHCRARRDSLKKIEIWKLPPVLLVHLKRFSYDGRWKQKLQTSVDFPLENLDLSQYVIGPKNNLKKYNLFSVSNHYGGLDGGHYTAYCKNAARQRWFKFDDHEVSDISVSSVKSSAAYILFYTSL
Procedure: (§2) USP2CD or USP8CD were expressed in E. coli BL21 Gold. Cells were grown in LB Miller to mid-log phase and induced by addition of 0.5 mM IPTG for USP2CD for 5 h at 20° C., while 1 mM IPTG was added for USP8CD for 3 h at 37° C. Then, cells were harvested and frozen at −80° C.
For His-tagged USP8CD, cells were resuspended in buffer A (50 mM TRIS pH 8.0, 500 mM NaCl, 2 mM Imidazole) and lysed using a sonicator. The lysate was clarified by centrifugation and applied to Ni Sepharose6 Fast Flow resin (GE Healthcare). The resin was sequentially washed first with buffer A containing 10 mM Imidazole then with buffer A containing 20 mM Imidazole, and finally with buffer A containing 50 mM Imidazole. Protein sample was eluted from the resin using buffer A containing 300 mM Imidazole. The eluted protein was buffer exchanged by gel-filtration on a Superdex 200 10/300 GL column (GE Healthcare) equilibrated in Buffer B (20 mM HEPES pH 7.5, 300 mM NaCl, 2 mM dithiothreitol (DTT)).
as §1
(§3) Medium value out of duplicates is reported.

[3] = biological target: T3, USP2^CD (purified catalytic domain of USP2) (Homo sapiens, UniProt O75604); experiment: Inhibition of purified USP2^CD enzymatic activity (Ub-AMC or Ub-Rho substrate); settings: for inhibition at 0.01 µM: 0.01 μM compound; for inhibition at 0.05 µM: 0.05 μM compound; for inhibition at 0.1 µM: 0.1 μM compound; for inhibition at 0.5 µM: 0.5 μM compound; for inhibition at 1 µM: 1 μM compound; for inhibition at 5 µM: 5 μM compound; for inhibition at 10 µM: 10 μM compound; for inhibition at 25 µM: 25 μM compound; for inhibition at 50 µM: 50 μM compound; for IC50: Ub-AMC substrate at 1 μM, Table 2b, read-out: IC50 USP2 CD
T3 construct: The purified catalytic domain of USP2 (USP2^CD, in-house purified); His; made in house; host or cells: E. coli BL21 Gold
T3 sequence (O75604 267-599 limits assumed): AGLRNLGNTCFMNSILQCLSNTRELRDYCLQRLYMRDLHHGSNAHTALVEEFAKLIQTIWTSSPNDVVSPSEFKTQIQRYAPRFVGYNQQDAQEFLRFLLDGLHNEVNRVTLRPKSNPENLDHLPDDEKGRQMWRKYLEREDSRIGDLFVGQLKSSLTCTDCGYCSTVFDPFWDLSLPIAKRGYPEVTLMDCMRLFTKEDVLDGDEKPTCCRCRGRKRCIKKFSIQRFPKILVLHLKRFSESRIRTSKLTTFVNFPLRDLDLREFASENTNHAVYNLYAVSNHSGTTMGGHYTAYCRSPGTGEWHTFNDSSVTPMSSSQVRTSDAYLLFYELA
Procedure: as §2
For His-tagged USP2CD, cells were resuspended in buffer C (10 mM TRIS pH 8.0, 100 mM NaCl, 10 mM Imidazole) and lysed using a sonicator. The lysate was clarified by centrifugation and applied to Ni Sepharose6 Fast Flow resin (GE Healthcare). The resin was sequentially washed with buffer C, then with buffer C containing 50 mM Imidazole. Protein sample was eluted from the resin using buffer C containing 250 mM Imidazole. The eluted protein was buffer exchanged by gel-filtration on a Superdex 200 10/300 GL column (GE Healthcare) equilibrated in Buffer D (15 mM Bis-TRIS pH 6.0, 100 mM NaCl, 1 mM dithiothreitol (DTT)).
as §1, §3

[4] = 0.1 μM compound, Ub-AMC at 1 μM, Table 1a
[5] = 0.5 μM compound, Ub-AMC at 1 μM, Table 1a
[6] = 5 μM compound, Ub-AMC at 1 μM, Table 1a
[7] = 25 μM compound, Ub-AMC at 1 μM, Table 1a
[8] = 50 μM compound, Ub-AMC at 1 μM, Table 1a

O=C1c2ccccc2C(=O)c2nc(CS(=O)(=O)c3ccc(F)cc3)c(CS(=O)(=O)c3ccc(F)cc3)nc21 [PCR7993]
inhibition at 1 µM [1]: 29% | inhibition at 5 µM [1]: 59% | inhibition at 25 µM [1]: 58% | inhibition at 50 µM [1]: 98% | USP8^CD % inhibition [2, 4]: 0% | USP8^CD % inhibition [2, 5]: 16% | inhibition at 1 µM ([2]; Ub-AMC at 1 μM, Table 1a): 34% | USP8^CD % inhibition [2, 6]: 22% | USP8^CD % inhibition [2, 7]: 101% | USP8^CD % inhibition [2, 8]: 102%

O=C1c2ccccc2C(=O)c2nc(CS(=O)(=O)c3ccc(F)c(F)c3F)c(CS(=O)(=O)c3ccc(F)c(F)c3F)nc21 [OVM23]
inhibition at 0.01 µM ([2]; Table 1d): -5% | inhibition at 0.05 µM ([2]; Table 1d): 12% | inhibition at 0.1 µM ([2]; 0.1 μM compound, Table 1d): 24% | inhibition at 0.5 µM ([2]; 0.5 μM compound, Table 1d): 20% | inhibition at 1 µM ([2]; Table 1b): 83% | inhibition at 1 µM ([2]; Table 1d): 34% | inhibition at 5 µM ([2]; 5 μM compound, Table 1b): 92% | inhibition at 5 µM ([2]; 5 μM compound, Table 1d): 74% | inhibition at 10 µM ([2]; Table 1d): 80% | inhibition at 25 µM ([2]; 25 μM compound, Table 1b): 100% | inhibition at 50 µM ([2]; 50 μM compound, Table 1b): 103% | IC50 [2]: 2.2 µM | inhibition at 0.01 µM ([3]; Table 1c): -20% | inhibition at 0.05 µM ([3]; Table 1c): -26% | inhibition at 0.1 µM ([3]; Table 1c): -22% | inhibition at 0.5 µM ([3]; Table 1c): 16% | inhibition at 1 µM ([3]; Table 1b): 69% | inhibition at 1 µM ([3]; Table 1c): 18% | inhibition at 5 µM ([3]; Table 1b): 53% | inhibition at 5 µM ([3]; Table 1c): -1% | inhibition at 10 µM ([3]; Table 1c): 4% | inhibition at 25 µM ([3]; Table 1b): 94% | inhibition at 50 µM ([3]; Table 1b): 97% | IC50 [3]: > 10 µM

Cc1ccc(S(=O)(=O)Cc2nc3c(nc2CS(=O)(=O)c2ccc(C)cc2)C(=O)c2ccccc2C3=O)cc1 [PCR7985]
inhibition at 1 µM [1]: 33% | inhibition at 5 µM [1]: 49% | inhibition at 25 µM [1]: 59% | inhibition at 50 µM [1]: 95% | USP8^CD % inhibition [2, 4]: 1% | USP8^CD % inhibition [2, 5]: 20% | inhibition at 1 µM ([2]; Ub-AMC at 1 μM, Table 1a): 55% | USP8^CD % inhibition [2, 6]: 23% | USP8^CD % inhibition [2, 7]: 61% | USP8^CD % inhibition [2, 8]: 98%

O=C1c2ccccc2C(=O)c2nc(CS(=O)(=O)c3ccccc3)c(CS(=O)(=O)c3ccccc3)nc21 [PCR7986]
inhibition at 1 µM [1]: 46% | inhibition at 5 µM [1]: 74% | inhibition at 25 µM [1]: 78% | inhibition at 50 µM [1]: 92% | USP8^CD % inhibition [2, 4]: 1% | USP8^CD % inhibition [2, 5]: 13% | USP8^CD % inhibition [2, 8]: 36%

O=C1c2ccccc2C(=O)c2nc(CBr)c(CBr)nc21 [PCR8132]
IC50 [2]: 4.5 µM | IC50 [3]: 17 µM

COc1ccc(S(=O)(=O)Cc2nc3c(nc2CS(=O)(=O)c2ccc(OC)cc2)C(=O)c2ccccc2C3=O)cc1 [PCR7994]
inhibition at 0.01 µM ([2]; Table 1d): -7% | inhibition at 0.05 µM ([2]; Table 1d): -13% | inhibition at 0.1 µM ([2]; 0.1 μM compound, Table 1d): -23% | inhibition at 0.5 µM ([2]; 0.5 μM compound, Table 1d): 18% | inhibition at 1 µM ([2]; Table 1b): 62% | inhibition at 1 µM ([2]; Table 1d): 31% | inhibition at 5 µM ([2]; 5 μM compound, Table 1b): 68% | inhibition at 5 µM ([2]; 5 μM compound, Table 1d): 52% | inhibition at 10 µM ([2]; Table 1d): 73% | inhibition at 25 µM ([2]; 25 μM compound, Table 1b): 91% | inhibition at 50 µM ([2]; 50 μM compound, Table 1b): 100% | IC50 [2]: 5 µM | inhibition at 0.01 µM ([3]; Table 1c): -8% | inhibition at 0.05 µM ([3]; Table 1c): -12% | inhibition at 0.1 µM ([3]; Table 1c): 2% | inhibition at 0.5 µM ([3]; Table 1c): 26% | inhibition at 1 µM ([3]; Table 1b): -9% | inhibition at 1 µM ([3]; Table 1c): 5% | inhibition at 5 µM ([3]; Table 1b): 22% | inhibition at 5 µM ([3]; Table 1c): 8% | inhibition at 10 µM ([3]; Table 1c): 17% | inhibition at 25 µM ([3]; Table 1b): 53% | inhibition at 50 µM ([3]; Table 1b): 50% | IC50 [3]: > 10 µM

CCCCCS(=O)(=O)Cc1nc2c(nc1CS(=O)(=O)CCCCC)C(=O)c1ccccc1C2=O [VIN6077]
inhibition at 0.01 µM ([2]; Table 1d): 19% | inhibition at 0.05 µM ([2]; Table 1d): -2% | inhibition at 0.1 µM ([2]; 0.1 μM compound, Table 1d): 26% | inhibition at 0.5 µM ([2]; 0.5 μM compound, Table 1d): 26% | inhibition at 1 µM ([2]; Table 1b): 54% | inhibition at 1 µM ([2]; Table 1d): 44% | inhibition at 5 µM ([2]; 5 μM compound, Table 1b): 94% | inhibition at 5 µM ([2]; 5 μM compound, Table 1d): 100% | inhibition at 10 µM ([2]; Table 1d): 91% | inhibition at 25 µM ([2]; 25 μM compound, Table 1b): 101% | inhibition at 50 µM ([2]; 50 μM compound, Table 1b): 100% | IC50 [2]: 1.2 µM | inhibition at 0.01 µM ([3]; Table 1c): -11% | inhibition at 0.05 µM ([3]; Table 1c): -16% | inhibition at 0.1 µM ([3]; Table 1c): -13% | inhibition at 0.5 µM ([3]; Table 1c): 11% | inhibition at 1 µM ([3]; Table 1b): 24% | inhibition at 1 µM ([3]; Table 1c): -17% | inhibition at 5 µM ([3]; Table 1b): 51% | inhibition at 5 µM ([3]; Table 1c): 20% | inhibition at 10 µM ([3]; Table 1c): 27% | inhibition at 25 µM ([3]; Table 1b): 63% | inhibition at 50 µM ([3]; Table 1b): 76% | IC50 [3]: > 10 µM
